“And” between values parts separate entries of the source, which are not always exact repeats. Identical values can stand only once. Square brackets hold non-standard residues; d marks the D form. Peptide text beside a SMILES is read from it. Nle = CCCC[C@H](N)C(=O)O
Experiments:
[1] = tested on: mammalian HMG-R; conditions: mammalian cells, previous studies; cited from earlier work
[2] = tested on: proteasome; conditions: Jensen et al. 1995; cited from earlier work
[3] = tested on: hrd mutant yeast strains; experiment: Canavanine sensitivity of hrd mutant strains on solid medium; assay type: cell-based; conditions: 1.5 μg/ml canavanine, 30° C., one week; versus isogenic parent strain
Experimental: FIG. 7. Proteasomal phenotypes associate with the hrd2-1 mutant. A) Canavanine sensitivity. Liquid cultures of strains with the indicated mutations, but otherwise isogenic, were spotted onto supplemented minimal medium ([…] of ˜0.5 OD) with or without 1.5 μg/ml canavanine as indicated, and allowed to grow at 30° C. for a week. B) Global ubiquitination. Lysates of the same strains were immunoblotted with affinity-purified anti-ubiquitin antibody to survey the degree of ubiquitination of cellular proteins. The line indicates the position of an 80 kD marker. Equal amounts of protein were loaded in each lane and the transfer efficiency from each lane was identical, as judged by India ink staining. The average increase in the amount of ubiquitin conjugates in the hrd2-1 mutant was approximately threefold over the amount in other strains. C) Complementation of the hrd2-1 mutant by the human TRAP-2 coding region. Strain RHY402 (hrd2-1, Ura^−) was transformed with parent vector pRH98-1, with a centromere plasmid containing the HRD2 gene (pRH482) or with a plasmid that expressed the TRAP-2 coding region from the GAPDH promoter (pRH492). These transformants are noted “vector, HRD2, and TRAP-2”, respectively. Each strain was then streaked on solid medium with 0 (top) or 200 μg/ml (bottom) and allowed to grow at 37° C. […]

[4] = tested on: strain expressing Hmg2p (RHY183); experiment: Lovastatin sensitivity (growth, plating efficiency) of strain expressing Hmg2p; assay type: cell-based, yeast
[5] = tested on: 6myc-Hmg2p; experiment: 6myc-Hmg2p degradation by cycloheximide chase and stationary chase with immunoblotting; assay type: cell-based, yeast; conditions: small dose of lovastatin (50 μg/ml) added to cultures
Description: (§1) FIG. 1. 6myc-Hmg2p: an unregulated variant of Hmg2p. A) schematic diagram of the unregulated 6myc-Hmg2p. […] The tagged protein was still capable of catalyzing the reduction of 3-hydroxy-3-methyl glutaryl CoA (HMG-CoA) to mevalonate (MEV), an essential intermediate of cholesterol biosynthesis. B) The degradation of 6myc-Hmg2p was not regulated by the mevalonate pathway. Cells expressing 6myc-Hmg2p (RHY244) or Hmg2p (RHY183) were examined for degradation of each protein by addition of cycloheximide at time zero and subsequent immunoblotting, as described by Hampton and Rine (J Cell Biol 125: 299-312, 1994). In the indicated samples, 50 μg/ml of lovastatin was added along with the cycloheximide at t=0. The 6myc-Hmg2planes (left panel) were immunoblotted using the 9E10 anti-myc antibody, and the Hmg2p lanes (right panel) were immunoblotted with affinity purified anti-Hmg1p protein. Each lane contained lysate from ˜0.2 O.D.600 units of cells. C) Test of 6myc-Hmg2p degradation by “stationary chase.” Log phase (OD600˜0.5) cultures of the strains used in Panel B were allowed to grow for an additional 15 hours at 30° C., and then subjected to lysis and immunoblotting to evaluate degradation of the expressed reductase (Hampton et al., Proc. Natl. Acad. Sci. USA. 93: 828-833, 1996). […]

[6] = target: T1, Hmg2p (Saccharomyces cerevisiae, UniProt P12684); experiment: Hmg2p degradation by cycloheximide chase and stationary chase with immunoblotting; assay type: cell-based, yeast; conditions: small dose of lovastatin (50 μg/ml) added to cultures
T1 construct: Note the lowered mobility of the 6myc-Hmg2p protein as compare to the native Hmg2p; expressed in transfected cells; host or cells: S. cerevisiae strain RHY183 (hmg1 and hmg2 disrupted; single integrated HMG2 coding region under the GAPDH promoter)
T1 sequence (P12684 1-1045): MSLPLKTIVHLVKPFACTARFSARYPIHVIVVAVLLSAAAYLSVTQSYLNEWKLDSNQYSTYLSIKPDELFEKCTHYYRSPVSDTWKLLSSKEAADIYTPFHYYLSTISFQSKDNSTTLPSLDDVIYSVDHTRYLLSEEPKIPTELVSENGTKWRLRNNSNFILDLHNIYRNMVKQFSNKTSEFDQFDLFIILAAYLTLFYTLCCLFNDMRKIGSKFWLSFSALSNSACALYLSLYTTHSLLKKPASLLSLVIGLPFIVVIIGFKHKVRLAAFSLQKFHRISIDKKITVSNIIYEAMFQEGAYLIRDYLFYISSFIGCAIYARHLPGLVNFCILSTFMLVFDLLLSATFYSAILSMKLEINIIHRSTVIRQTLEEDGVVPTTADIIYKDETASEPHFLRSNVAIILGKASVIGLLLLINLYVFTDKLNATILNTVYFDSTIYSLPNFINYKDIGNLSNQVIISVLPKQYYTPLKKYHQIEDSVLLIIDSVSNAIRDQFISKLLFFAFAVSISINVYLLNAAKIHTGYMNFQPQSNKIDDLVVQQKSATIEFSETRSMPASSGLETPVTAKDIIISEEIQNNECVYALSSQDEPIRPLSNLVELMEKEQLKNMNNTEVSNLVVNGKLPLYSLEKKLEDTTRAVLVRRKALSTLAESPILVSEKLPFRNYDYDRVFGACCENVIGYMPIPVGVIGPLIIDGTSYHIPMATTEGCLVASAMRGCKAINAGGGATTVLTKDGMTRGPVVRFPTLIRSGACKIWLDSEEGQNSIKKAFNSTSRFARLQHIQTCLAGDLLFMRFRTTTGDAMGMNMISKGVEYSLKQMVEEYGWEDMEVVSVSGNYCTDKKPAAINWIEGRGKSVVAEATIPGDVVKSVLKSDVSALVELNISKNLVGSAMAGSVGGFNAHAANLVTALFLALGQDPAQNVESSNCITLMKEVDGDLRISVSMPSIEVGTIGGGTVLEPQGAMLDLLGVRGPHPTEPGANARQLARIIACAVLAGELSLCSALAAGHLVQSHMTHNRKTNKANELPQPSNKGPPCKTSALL
Description: as §1

[7] = tested on: strain expressing 6myc-Hmg2p (RHY244); experiment: Lovastatin sensitivity (growth, plating efficiency) of strain expressing 6myc-Hmg2p; assay type: cell-based, yeast; conditions: liquid medium, FIG. 1d

Structure (SMILES): CCCC[C@@H](C=O)NC(=O)[C@H](CC(C)C)NC(=O)[C@H](CC(C)C)NC(C)=O [ALLN] (Ac-Leu-Leu-[Nle]-aldehyde)
- degradation of mammalian HMG-R [1]: inhibited
- inhibition of the proteasome [2]: potent inhibitor

Structure (SMILES): N=C(N)NOCC[C@H](N)C(=O)O [canavanine]
- sensitivity of hrd1 or hrd3 alleles to canavanine [3]: no more sensitive
- sensitivity of hrd2 mutants to canavanine [3]: heightened sensitivity

Structure (SMILES): CC[C@H](C)C(=O)O[C@H]1C[C@@H](C)C=C2C=C[C@H](C)[C@H](CC[C@@H]3C[C@@H](O)CC(=O)O3)[C@H]21 [lovastatin]
- growth of strain ([4]; hmg1::LYS2 hmg2::HIS3 strain with single integrated HMG2 driven by GAPDH promoter, dose-dependent): blocked
- plating efficiency of surviving colonies on lovastatin medium ([4]; non-mutagenized cells expressing wild-type Hmg2p, solid lovastatin-containing medium): 0.1-1% and ~1%
- effect on degradation of 6myc-Hmg2p [5]: unaffected
- effect on degradation of wild-type Hmg2p [6]: dramatically stabilized
- lovastatin sensitivity relative to isogenic strain expressing HMG2 [7]: more sensitive

Reference: patent US6531292B1, “Genes and proteins controlling cholesterol synthesis” (The Regents of the University of California, priority 1995, dated 2003)
